Results reported in patent US12540131B2 (Merck Sharp & Dohme LLC, priority 2019, dated 2026).

Target: GST tagged truncated human mutant G2019S LRRK2 (Homo sapiens (Human), UniProt Q5S007, G2019S)
Test: LRRK2 Km ATP LanthaScreen Assay
Assay type: biochemical
Conditions: G2019S LRRK2, 134 μM ATP (Km ATP), mean values
How it was run: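 Enzyme (GST-tagged, truncated) was preincubated with compound for 15 min at RT in 50 mM Tris pH 8.5, 10 mM MgCl2, 0.01% Brij-35, 1 mM EGTA, 2 mM DTT and 0.05 mM orthovanadate. Fluorescein-LRRKtide and 134 μM ATP (Km) were then added for 90 min. EDTA and Tb-anti-pERM antibody stopped the reaction; the TR-FRET 520/495 ratio gave 4-parameter IC50s, reported as mean pIC50.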

GST tagged truncated human mutant G2019S LRRK2, sequence (Q5S007 970-2527 G2019S): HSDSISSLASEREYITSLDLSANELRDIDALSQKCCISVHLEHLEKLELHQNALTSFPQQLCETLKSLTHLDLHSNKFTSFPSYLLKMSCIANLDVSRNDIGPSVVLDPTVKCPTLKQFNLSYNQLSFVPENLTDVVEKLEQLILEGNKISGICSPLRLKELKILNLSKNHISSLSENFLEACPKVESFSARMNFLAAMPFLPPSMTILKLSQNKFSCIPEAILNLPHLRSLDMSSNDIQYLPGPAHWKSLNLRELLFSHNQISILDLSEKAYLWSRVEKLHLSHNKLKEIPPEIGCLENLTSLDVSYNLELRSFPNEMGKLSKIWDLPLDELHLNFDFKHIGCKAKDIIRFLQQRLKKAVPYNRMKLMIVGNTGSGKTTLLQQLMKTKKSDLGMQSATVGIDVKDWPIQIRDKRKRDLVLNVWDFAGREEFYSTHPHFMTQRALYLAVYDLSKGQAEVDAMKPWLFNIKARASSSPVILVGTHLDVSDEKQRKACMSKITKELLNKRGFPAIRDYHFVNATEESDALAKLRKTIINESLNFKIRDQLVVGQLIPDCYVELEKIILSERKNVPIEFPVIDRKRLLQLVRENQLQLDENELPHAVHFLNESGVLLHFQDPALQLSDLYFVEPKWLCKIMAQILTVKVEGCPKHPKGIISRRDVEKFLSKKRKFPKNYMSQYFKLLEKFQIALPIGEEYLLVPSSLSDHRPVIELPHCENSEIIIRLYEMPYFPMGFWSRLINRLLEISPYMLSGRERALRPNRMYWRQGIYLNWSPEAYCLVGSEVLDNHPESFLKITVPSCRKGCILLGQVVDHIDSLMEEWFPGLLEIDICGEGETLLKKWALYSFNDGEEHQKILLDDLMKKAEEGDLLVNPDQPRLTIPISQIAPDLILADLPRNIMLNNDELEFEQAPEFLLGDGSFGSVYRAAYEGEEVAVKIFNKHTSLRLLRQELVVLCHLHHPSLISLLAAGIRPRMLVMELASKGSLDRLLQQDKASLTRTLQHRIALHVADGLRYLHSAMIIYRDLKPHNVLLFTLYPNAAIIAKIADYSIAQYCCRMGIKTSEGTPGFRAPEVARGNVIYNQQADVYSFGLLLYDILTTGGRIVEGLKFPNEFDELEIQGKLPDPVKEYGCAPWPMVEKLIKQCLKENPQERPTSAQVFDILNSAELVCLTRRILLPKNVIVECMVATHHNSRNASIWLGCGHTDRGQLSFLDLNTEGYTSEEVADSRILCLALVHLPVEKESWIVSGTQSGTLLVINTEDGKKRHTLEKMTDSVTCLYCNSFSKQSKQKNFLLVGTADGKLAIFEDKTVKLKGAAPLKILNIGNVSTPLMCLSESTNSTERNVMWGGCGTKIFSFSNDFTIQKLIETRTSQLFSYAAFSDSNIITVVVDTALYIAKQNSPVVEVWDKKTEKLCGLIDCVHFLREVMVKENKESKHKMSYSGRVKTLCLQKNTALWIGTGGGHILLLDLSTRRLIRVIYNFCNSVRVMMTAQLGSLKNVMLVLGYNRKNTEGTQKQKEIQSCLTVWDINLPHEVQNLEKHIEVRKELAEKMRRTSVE

Compound	LRRK2 pIC50
Cc1cc(Nc2ncc3cc(C)c([C@@H]4CCN([C@H]5COC[C@H]5O)C[C@H]4F)cc3n2)n(C)n1 (single isomer, unassigned) [Ex-5.10, (3S,4S)(3S,4S) or (3S,4S)(3R,4R) or (3R,4R)(3S,4S) or (3R,4R)(3R,4R) 4-(4-{2-[(1,3-dimethyl-1H-pyrazol-5-yl)amino]-6-methylquinazolin-7-yl}-3-fluoropiperidin-1-yl)oxolan-3-ol]	6.66
[2H]C1(N2CCC(c3cc4nc(Nc5cnn(CC(C)(C)O)c5Cl)ncc4cc3Cl)CC2)COC1 [Ex-4.59, 1-(5-chloro-4-((6-chloro-7-(1-(oxetan-3-yl-3-d)piperidin-4-yl)quinazolin-2-yl)amino)-1H-pyrazol-1-yl)-2-methylpropan-2-ol]	>9.20
Cc1cc2cnc(Nc3cnn(C4CC4)c3Cl)nc2cc1[C@@H]1CCN([C@]2(C)COC[C@@H]2O)C[C@H]1F (single isomer, unassigned) [Ex-4.149, (3S,4S)(3S,4S) or (3S,4S)(3R,4R) or (3R,4R)(3S,4S) or (3R,4R)(3R,4R) 4-(4-{2-[(5-chloro-1-cyclopropyl-1H-pyrazol-4-yl)amino]-6-methylquinazolin-7-yl}-3-fluoropiperidin-1-yl)-4-methyloxolan-3-ol]	>9.20
O[C@@H]1COC[C@@H]1N1CC[C@@H](c2cc3nc(Nc4cnn(C56CC(C5)C6)c4)ncc3cc2Cl)[C@H](F)C1 (single isomer, unassigned) [Ex-4.153, (3S,4S)(3S,4S) or (3S,4S)(3R,4R) or (3R,4R)(3S,4S) or (3R,4R)(3R,4R) 4-[4-(2-{[1-(bicyclo[1.1.1]pentan-1-yl)-1H-pyrazol-4-yl]amino}-6-chloroquinazolin-7-yl)-3-fluoropiperidin-1-yl]oxolan-3-ol]	>9.20
Cc1cc2cnc(Nc3cnn(C4CC4)c3Cl)nc2cc1C1CCN([C@@H]2COC[C@@H]2O)[C@@H](C)C1 (single isomer, unassigned) [Ex-4.243, (3S,4S)(2S) or (3R,4R)(2S) 4-[4-{2-[(5-chloro-1-cyclopropyl-1H-pyrazol-4-yl)amino]-6-methylquinazolin-7-yl}-2-methylpiperidin-1-yl]oxolan-3-ol]	>9.20
Cc1cc(Nc2ncc3cc(Cl)c(C4CCN([C@]5(C)COC[C@@H]5O)CC4)cc3n2)n(C)n1 (single isomer, unassigned) [Ex-1.25, (3S,4S) or (3R,4R) 4-(4-{6-chloro-2-[(1,3-dimethyl-1H-pyrazol-5-yl)amino]quinazolin-7-yl}piperidin-1-yl)-4-methyloxolan-3-ol]	8.99
Cc1cc2cnc(Nc3cnn(C4CC4)c3Cl)nc2cc1[C@@H]1CCN([C@@H]2COC[C@@H]2O)C[C@H]1F (single isomer, unassigned) [Ex-4.150, (3S,4S)(3S,4S) or (3S,4S)(3R,4R) or (3R,4R)(3S,4S) or (3R,4R)(3R,4R) 4-(4-{2-[(5-chloro-1-cyclopropyl-1H-pyrazol-4-yl)amino]-6-methylquinazolin-7-yl}-3-fluoropiperidin-1-yl)oxolan-3-ol]	>9.20
CO[C@H]1COC[C@H]1N1CC[C@@H](c2cc3nc(Nc4cnn(C5CC5)c4Cl)ncc3cc2C)[C@H](F)C1 (single isomer, unassigned) [Ex-4.248, (3S,4S)(3S,4S) or (3S,4S)(3R,4R) or (3R,4R)(3S,4S) or (3R,4R)(3R,4R)N-(5-chloro-1-cyclopropyl-1H-pyrazol-4-yl)-7-[3-fluoro-1-(4-methoxyoxolan-3-yl)piperidin-4-yl]-6-methylquinazolin-2-amine]	>9.20
Cc1cc(Nc2ncc3cc(Cl)c([C@H]4CCN(C)C[C@@H]4F)cc3n2)sn1 (single isomer, unassigned) [Ex-4.53, (3S,4S) or (3R,4R) 6-chloro-7-(3-fluoro-1-methylpiperidin-4-yl)-N-(3-methyl-1,2-thiazol-5-yl)quinazolin-2-amine]	>9.20
Cc1c(Nc2ncc3cc(Cl)c(C4C[C@H]5C[C@@H]4CN5C4COC4)cc3n2)cnn1C1CC1 (single isomer, unassigned) [Ex-4.126, (1S,4S) or (1R,4R) 6-chloro-N-(1-cyclopropyl-5-methyl-1H-pyrazol-4-yl)-7-[2-(oxetan-3-yl)-2-azabicyclo[2.2.1]heptan-5-yl]quinazolin-2-amine]	7.64
Cc1cc(Nc2ncc3cc(Cl)c(C4CCN(C5COCC5O)CC4F)cc3n2)n(C)n1 (single isomer, unassigned) [Ex-4.236, (3S,4S)(3S,4S) or (3S,4S)(3R,4R) or (3R,4R)(3S,4S) or (3R,4R)(3R,4R) 4-(4-{6-chloro-2-[(1,3-dimethyl-1H-pyrazol-5-yl)amino]quinazolin-7-yl}-3-fluoropiperidin-1-yl)oxolan-3-ol]	6.61
CC(n1ncc(Nc2ncc3cc(Cl)c(C4CCN(C5COC5)CC4)cc3n2)c1Cl)C(C)(C)O (single isomer, unassigned) [Ex-4.62, (8) or (R) 3-[5-chloro-4-({6-chloro-7-[1-(oxetan-3-yl)piperidin-4-yl]quinazolin-2-yl}amino)-1H-pyrazol-1-yl]-2-methylbutan-2-ol]	>9.20
CC(C)(O)Cn1ncc(Nc2ncc3cc(Cl)c(C4(F)CCN(C5COC5)CC4)cc3n2)c1Cl [Ex-4.86, 1-[5-chloro-4-({6-chloro-7-[4-fluoro-1-(oxetan-3-yl)piperidin-4-yl]quinazolin-2-yl}amino)-1H-pyrazol-1-yl]-2-methylpropan-2-ol]	8.09
N#CCCN1CCC(c2cc3nc(Nc4cnn(C5CC5)c4Cl)ncc3cc2Cl)CC1 [Ex-8.6, 3-(4-{6-chloro-2-[(5-chloro-1-cyclopropyl-1H-pyrazol-4-yl)amino]quinazolin-7-yl}piperidin-1-yl)propanenitrile]	8.17
Clc1cc2cnc(Nc3cnn(CC4CC4)c3Cl)nc2cc1C1CCNCC1 [Ex-4.90, 6-chloro-N-[5-chloro-1-(cyclopropylmethyl)-1H-pyrazol-4-yl]-7-(piperidin-4-yl)quinazolin-2-amine]	>9.20
Cc1cc(Nc2ncc3cc(Cl)c(C4CCN([C@@H]5COC[C@@H]5O)CC4)cc3n2)n(C2CC2)n1 (single isomer, unassigned) [Ex-2.75, (3S,4S) or (3R,4R)4-(4-{6-chloro-2-[(1-cyclopropyl-3-methyl-1H-pyrazol-5-yl)amino]quinazolin-7-yl}piperidin-1-yl)oxolan-3-ol]	8.63
Cc1cc(Nc2ncc3cc(Cl)c(C4CCN([C@]5(C)COC[C@@H]5O)CC4)cc3n2)n(C2CC2)n1 (single isomer, unassigned) [Ex-1.28, (3S,4S) or (3R,4R) 4-(4-{6-chloro-2-[(1-cyclopropyl-3-methyl-1H-pyrazol-5-yl)amino]quinazolin-7-yl}piperidin-1-yl)-4-methyloxolan-3-ol]	9.12
Cc1c(Nc2ncc3cc(Cl)c(C4CCN(C5COC5C)CC4)cc3n2)cnn1C(C)(C)C#N (single isomer, unassigned) [Ex-4.134, (2R,3R) or (2S,3S) or (2S,3R) or (2R,3S) 2-[4-({6-chloro-7-[1-(2-methyloxetan-3-yl)piperidin-4-yl]quinazolin-2-yl}amino)-5-methyl-1H-pyrazol-1-yl]-2-methylpropanenitrile]	>9.20
CC(n1ncc(Nc2ncc3cc(Cl)c([C@@H]4CCN(C5COC5)C[C@H]4F)cc3n2)c1Cl)C(C)(C)O (single isomer, unassigned) [Ex-4.69, (R)(3S,4S) or (R)(3R,4R) or (S)(3S,4S) or (S)(3R,4R) 3-[5-chloro-4-({6-chloro-7-[3-fluoro-1-(oxetan-3-yl)piperidin-4-yl]quinazolin-2-yl}amino)-1H-pyrazol-1-yl]-2-methylbutan-2-ol]	9.13

Same assay, conditions: G2019S LRRK2, 134 μM ATP (Km ATP), mean values; read-out: LRRK2 pIC50 (converted)

Compound	IC50
Cc1c(Nc2ncc3cc(Cl)c(C4CCN(CC(O)Cc5ccccc5)CC4)cc3n2)cnn1C1CC1 (single isomer, unassigned) [Ex-4.219, (S) or (R) 1-(4-{6-chloro-2-[(1-cyclopropyl-5-methyl-1H-pyrazol-4-yl)amino]quinazolin-7-yl}piperidin-1-yl)-3-phenylpropan-2-ol]	4.68 nM
CC1(N2CCC(n3cc(Nc4ncc5cc(Cl)c(C6CC67CC7)cc5n4)cn3)CC2)COC1 (single isomer, unassigned) [Ex-2.6, (S) or (R) 6-chloro-N-{1-[1-(3-methyloxetan-3-yl)piperidin-4-yl]-1H-pyrazol-4-yl}-7-(spiro[2.2]pentan-1-yl)quinazolin-2-amine]	< 0.631 nM
Clc1cc2cnc(Nc3cnn(C4CC4)c3Cl)nc2cc1C1CCN(C2CCOC2)CC1 (single isomer, unassigned) [Ex-4.49, (S) or (R) 6-chloro-N-(5-chloro-1-cyclopropyl-1H-pyrazol-4-yl)-7-[1-(oxolan-3-yl)piperidin-4-yl]quinazolin-2-amine]	< 0.631 nM
Clc1cc2cnc(Nc3cnn(C4CC4)c3Cl)nc2cc1C1CCN(C2CCOC2)CC1 (single isomer, unassigned) [Ex-4.48, (S) or (R) 6-chloro-N-(5-chloro-1-cyclopropyl-1H-pyrazol-4-yl)-7-[1-(oxolan-3-yl)piperidin-4-yl]quinazolin-2-amine]	0.891 nM
Cc1c(Nc2ncc3cc(Cl)c(C4CCN(CC(O)Cc5ccccc5)CC4)cc3n2)cnn1C1CC1 (single isomer, unassigned) [Ex-4.218, (S) or (R) 1-(4-{6-chloro-2-[(1-cyclopropyl-5-methyl-1H-pyrazol-4-yl)amino]quinazolin-7-yl}piperidin-1-yl)-3-phenylpropan-2-ol]	13.8 nM
Cc1c(Nc2ncc3cc(Cl)c(C4CCN(CC(O)c5ccc(Cl)cc5)CC4)cc3n2)cnn1C1CC1 (single isomer, unassigned) [Ex-4.224, (S) or (R) 2-(4-{6-chloro-2-[(1-cyclopropyl-5-methyl-1H-pyrazol-4-yl)amino]quinazolin-7-yl}piperidin-1-yl)-1-(4-chlorophenyl)ethan-1-ol]	13.8 nM
